Experimental data as given in patent US20220289753A1, “SHP2 INHIBITORS” (IRBM S.P.A., priority 2019, published 2022).

Each molecule was assayed against T1, SHP-2 enzyme (Met1-Leu525) (Homo sapiens, UniProt Q06124) (assay: SHP2 inhibition enzymatic assay (DiFMUP substrate, IRS1 peptide activation)). Details: SHP2 wt; activated by 500 nM IRS1 peptide; 75 μM DiFMUP substrate.
T1 construct: synthetized by Origene, Met1-Leu525, cat #TP750155; purchased Origene TP750155
T1 sequence (Q06124 1-525): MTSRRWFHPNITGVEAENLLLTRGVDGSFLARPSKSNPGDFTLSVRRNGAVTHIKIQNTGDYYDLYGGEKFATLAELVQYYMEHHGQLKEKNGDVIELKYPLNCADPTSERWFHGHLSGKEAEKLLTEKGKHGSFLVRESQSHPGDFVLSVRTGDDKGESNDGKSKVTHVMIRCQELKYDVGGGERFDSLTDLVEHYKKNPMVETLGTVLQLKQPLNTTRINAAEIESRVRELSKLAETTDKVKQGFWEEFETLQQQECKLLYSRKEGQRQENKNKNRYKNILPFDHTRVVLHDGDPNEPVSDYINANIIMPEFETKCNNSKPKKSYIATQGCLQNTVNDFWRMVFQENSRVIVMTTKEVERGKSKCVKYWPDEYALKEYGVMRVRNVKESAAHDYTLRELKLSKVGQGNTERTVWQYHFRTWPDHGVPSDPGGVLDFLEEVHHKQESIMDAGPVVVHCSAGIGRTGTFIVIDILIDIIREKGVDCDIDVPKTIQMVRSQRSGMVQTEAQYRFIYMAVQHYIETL
Assay type: biochemical
In short: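 SHP-2 (Met1-Leu525, 0.5 nM final) preincubated 30 min with compounds and IRS1 activating peptide in HEPES pH 7.2 buffer with NaCl, KCl, EDTA, tween-20, 5 mM DTT. DiFMUP then added for 30 min at room temperature and fluorescence read. IC50 from four-parameter logistic fit of % inhibition.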

Row | SMILES | IC50 [nM]
1 | N[C@@H]1c2cccnc2CC12CCN(c1nc3nc(Sc4cccnc4C(F)(F)F)cnc3[nH]1)CC2 [Example 139, (S)-1′-(5-((2-(trifluoromethyl)pyridin-3-yl)thio)-1H-imidazo[4,5-b]pyrazin-2-yl)-5,7-dihydrospiro[cyclopenta[b]pyridine-6,4′-piperidin]-5-amine] | < 500
2 | FC(F)(F)c1ncccc1Sc1cnc2[nH]c(N3CC4(CCCNC4)C3)nc2n1 [Example 17, 2-(2,6-diazaspiro[3.5]nonan-2-yl)-5-((2-(trifluoromethyl)pyridin-3-yl)thio)-1H-imidazo[4,5-b]pyrazine] | 500 to 3000
3 | FC(F)(F)c1ncccc1Sc1cnc2[nH]c(N3CCC34CCNCC4)nc2n1 [Example 44, 2-(1,7-diazaspiro[3.5]nonan-1-yl)-5-((2-(trifluoromethyl)pyridin-3-yl)thio)-1H-imidazo[4,5-b]pyrazine] | 500 to 3000
4 | FC(F)(F)c1ncccc1Sc1cnc2[nH]c(N3CCN4CCNCC4C3)nc2n1 (centres unmarked) [Example 56, 2-(5-((2-(trifluoromethyl)pyridin-3-yl)thio)-1H-imidazo[4,5-b]pyrazin-2-yl)octahydro-2H-pyrazino[1,2-a]pyrazine] | 500 to 3000
5 | CC1(N)CCN(c2nc3ncc(Sc4ccc(-n5nc[nH]c5=O)cc4)nc3[nH]2)CC1 [Example 10, 2-(4-((2-(4-amino-4-methylpiperidin-1-yl)-1H-imidazo[4,5-b]pyrazin-6-yl)thio)phenyl)-2,4-dihydro-3H-1,2,4-triazol-3-one] | 500 to 3000
6 | Cc1c(Cl)cccc1Sc1cnc2[nH]c(N3CCC(C)(N)CC3)nc2n1 [Example 114, 1-(5-((3-chloro-2-methylphenyl)thio)-1H-imidazo[4,5-b]pyrazin-2-yl)-4-methylpiperidin-4-amine] | < 500
7 | COCCn1c(N2CCC(C)(N)CC2)nc2nc(Sc3cccnc3C(F)(F)F)cnc21 [Example 129, 1-(1-(2-methoxyethyl)-5-((2-(trifluoromethyl)pyridin-3-yl)thio)-1H-imidazo[4,5-b]pyrazin-2-yl)-4-methylpiperidin-4-amine] | 500 to 3000
8 | N[C@@H]1c2ccccc2CC12CCN(c1nc3nc(Sc4ccnc5ccsc45)cnc3[nH]1)CC2 [Example 212, (S)-1′-(5-(thieno[3,2-b]pyridin-7-ylthio)-1H-imidazo[4,5-b]pyrazin-2-yl)-1,3-dihydrospiro[indene-2,4′-piperidin]-1-amine] | < 500

Each molecule was assayed on ERK phosphorylation in KYSE-520 cells (assay: Phospho-ERK cellular assay (Advanced phospho-ERK1/2 (Thr202/Tyr204) TR-FRET kit)). Details: Homo sapiens, KYSE-520, 2 h, KYSE-520 cells, 2 h at 37° C., TR-FRET; read-out: pERK IC50.
Assay type: cell-based
Method: Phospho-ERK Cellular Assay
ERK phosphorylation was detected using the “Advanced phospho-ERK1/2 (Thr202/Tyr204)” TR-FRET kit (Cisbio, Cat #64AERPEG/H), following the manufacturer reagents and instructions. […] After an overnight incubation, cells were treated with DMSO serial diluted compounds and incubated for 2 h at 37° C. After incubation, 2 μL/well of 4× Lysis Buffer (Cisbio 64KL1FDF), were added and incubated with cells for 30 min on gentle shaking. Finally, lysates were added with 2 μL/well of Eu cryptate (donor) and D2 (acceptor) conjugated antibodies (as provided by the Cisbio kit #64AERPEG/H) diluted 1:100 in Detection Buffer (as provided by the Cisbio kit #64AERPEG/H). Plates were then sealed and incubated at room temperature in the dark. After an overnight incubation, the TR-FRET signal was detected on a suitable reader (Envision, PerkinElmer). The lower the TR-FRET signal the higher the higher the SHP2 inhibition in cells. […] The percentage activity is fitted against the compound dilutions with a four-parameter logistic regression. The inflection point (i.e. the concentration at which half-maximal inhibition is achieved) is the IC50.

Row | SMILES | IC50 [nM]
9 | N[C@@H]1c2cccnc2CC12CCN(c1nc3nc(Sc4cccnc4C(F)(F)F)cnc3[nH]1)CC2 [Example 139, (S)-1′-(5-((2-(trifluoromethyl)pyridin-3-yl)thio)-1H-imidazo[4,5-b]pyrazin-2-yl)-5,7-dihydrospiro[cyclopenta[b]pyridine-6,4′-piperidin]-5-amine] | < 1000
10 | Nc1nccc(Sc2cnc3[nH]c(N4CCC5(CC4)Oc4ccccc4[C@H]5N)nc3n2)c1Cl [Example 35, (R)-1′-(5-((2-amino-3-chloropyridin-4-yl)thio)-1H-imidazo[4,5-b]pyrazin-2-yl)-3H-spiro[benzofuran-2,4′-piperidin]-3-amine] | < 1000

Same assay, conditions: Homo sapiens, KYSE-520, 2 h, read-out: pERK IC50

Row | SMILES | IC50 [nM]
11 | CC1(C)C2CNCC1CN(c1nc3nc(Sc4cccnc4C(F)(F)F)cnc3[nH]1)C2 [Example 124, 2-(9,9-dimethyl-3,7-diazabicyclo[3.3.1]nonan-3-yl)-5-((2-(trifluoromethyl)pyridin-3-yl)thio)-1H-imidazo[4,5-b]pyrazine] | > 5000
12 | FC(F)(F)c1ncccc1Sc1cnc2nc(NC3CCNC4(CCC4)C3)[nH]c2n1 (centres unmarked) [Example 126, N-(5-azaspiro[3.5]nonan-8-yl)-6-((2-(trifluoromethyl)pyridin-3-yl)thio)-1H-imidazo[4,5-b]pyrazin-2-amine] | > 5000
13 | FC(F)(F)c1ncccc1Sc1cnc2[nH]c(N3CCC4CCC(C3)N4)nc2n1 (centres unmarked) [Example 125, 2-(3,9-diazabicyclo[4.2.1]nonan-3-yl)-5-((2-(trifluoromethyl)pyridin-3-yl)thio)-1H-imidazo[4,5-b]pyrazine] | > 5000
14 | FC(F)(F)c1ncccc1Sc1cnc2[nH]c(NCC3CNC(c4ccccc4)C3)nc2n1 (centres unmarked) [Example 128, N-((5-phenylpyrrolidin-3-yl)methyl)-5-((2-(trifluoromethyl)pyridin-3-yl)thio)-1H-imidazo[4,5-b]pyrazin-2-amine] | > 5000
